No end group written: not given here.
System: K. pneumoniae ribosomes
Experiment: In vitro translation assay (PURExpress, firefly luciferase) with purified ribosomes
Format: biochemical, K. pneumoniae ATCC 13883
Conditions: peptide at 5 μM, 30 min, 32 °C, luciferase luminescence, water control = 100%
Procedure: The ribosomes used in this study were purified as described previously ([Di Stasi et al., 2025]). Briefly, to purify the 70S ribosomes of ESKAPE pathogens, the bacterial strains E. faecium ATCC 19434 S. aureus ATCC 25923, K. pneumoniae ATCC 13883, A. baumannii ATCC 19606, P. aeruginosa ATCC 27853 and E. cloacae ATCC 13047 were grown in 2 L of Luria-Bertani (LB) medium, at 37 °C, until the mid-log phase was reached. After centrifugation at 7,000 rpm (12,000 × g) for 15 min at 20 °C (JLA rotor 8.1000), the bacterial pellet was resuspended in 50 mL of saline (0.9% w/v NaCl) and re-centrifuged at 15,000 rpm (27,000 × g) for 10 min at 20 °C (JA rotor 25.50). […] Finally, the solution was cleared of the last remaining impurities by centrifugation at 15,000 rpm (18,000 × g) for 15 min at 4 °C, and the ribosomes subjected to quantification by Nanodrop (A260). […]
The in vitro translation assay was performed by using the Δ ribosome from the E. coli PURExpress system New England Biolabs (NEB), as reported previously ([Di Stasi et al., 2025]; [Raulf et al., 2025]). […] Finally, 40 μL of luciferase assay substrate solution were added to the wells (Promega, E1501), and the luminescence measured using a plate reader (Tecan Infinite 200 PRO). The negative control of the test was nuclease-free water in place of the antibiotic, whose values were used to normalize the absolute luminescence values of the samples. […]

For RRIRPRPPRLPRPRPR [Bac7(1–16)], which “Inhibition of in vitro protein synthesis” value is on record?
The value was 90%.
